Assay results as given in US5077195A, “Polypeptides complementary to peptides or proteins having an amino acid sequence or nucleotide coding sequence at least partially known and methods of design therefor” (Board of Reagents, The University of Texas System, priority 1986, dated 1991).
Where no end group is shown, it is not given here.

Tests used:
female ICR mice = test: Induction of catatonia in mice by i.c. injection of serum; assay type: in vivo; conditions: simultaneous i.c. injection 0.2 mg
Text: It is well known that large doses of opiate-like substances can induce a catatonic state in animals which is inhibited or reversed by treatment with the opiate antagonist naloxone. In analogy with the results in earlier examples, the ability of a peptide (gamma-ODNE) complementary to an opiate peptide, gamma-endorphin, to induce antibodies that have opiate properties was examined.
Gamma-ODNE (Example II) was conjugated to Keyhole Limpet Hemocyanin ([…]) and used with Freund's adjuvant to generate rabbit antibodies in a conventional manner (see Example 1F). Both normal and induced rabbit sera were injected intracerebroventicularly (i.c.) into female ICR mice.

[1] = system: mouse adrenal tumor (Y-1) cells; test: Binding of anti-HTCA to affixed Y-1 cells (ELISA); conditions: FIG. 5
Procedure: Mouse adrenal tumor (Y-1) cells were affixed by glutaraldehyde in flat bottom wells of a microtiter plate. The affixed cells were then treated with rabbit anti-KLH or rabbit anti-HTCA alone or in the presence of several levels of ACTH. After washing, the microtiter wells were treated with goat antibody to rabbit immunoglobulin the goat antibody being coupled to the enzyme alkaline phosphatase. After washing away unbound antibody-phosphatase complex, p-nitrophenyl phosphate was added and the enzyme dependent development of absorbancy at […] was monitored. […] ACTH and anti-HTCA appeared competitive for the same binding site on the mouse adrenal tumor (Y-1) cells. Rabbit anti KLH had no effect (shaded region).

HTCA = test: Solid phase radiobinding assay for ACTH in serum on HTCA-coated wells; assay type: binding; conditions: for Log10 Dilution at which 50% inhibition occurred: graphic interpolation
Procedure: Complementary peptide (HTCA) was dissolved in phosphate buffered saline (PBS) at 1 mg/ml and 200 ul aliquots were placed in wells of a 96 well polyvinyl assay plate (Microtest III, Falcon Cat. #3911). HTCA was allowed to coat the wells overnight at 4° C. The coating solution was removed and the wells were washed three times with PBS. Radiolabeled ACTH (^125 I-ACTH, New England Nuclear NEX-65) was diluted into PBS containing 0.0005% TWEEN-20 so as to deliver 50 pg (or about 30,000 cpm) in a 20 ul volume.
Serum samples were prepared in a 96 well tissue culture plate by serial dilution of serum into PBS/TWEEN 20 to give a final volume of 180 ul/well. The serum samples were then transferred to the HTCA coated a ssay plate and allowed to incubate. Finally, 20 ul of ^125 I-ACTH solution was added, incubated, and the total sample of 200 ul was removed. After washing three times with PBS, the wells were cut from the plate and counted in a gamma counter.
Serum samples used in this study contained either 50 pg/ml or 500 pg/ml of ACTH added to fetal calf serum (FCS).

[2] = system: mouse adrenal tumor (Y-1) cells; test: Glucocorticoid hormone production by Y-1 cells (corticosterone RIA); assay type: cell-based; conditions: ACTH 10 microunits/well, 18 hrs
Procedure: An induction of glucocorticoid hormone production by ACTH and anti-HTCA was found with cultured mammalian cells. Duplicate cultures of mouse adrenal tumor (Y-1) cells in microtiter plates were treated with culture media, ACTH (10 microunits/well) or various dilutions of the anti-HTCA.
^a Duplicate cultures of mouse adrenal (Y1) cells in microtiter plate
were treated with culture media, ACTH (10 microunits/well) or the
indicated dilutions of antibody to HTCA. After 18 hrs incubation at
37° in 4% CO2, replicate cultures were pooled and assayed for
glucocorticoid hormone production by a radioimmunoassay (RIA) for […]

antibody to ACTH = test: Competition in standard RIA for ACTH; assay type: binding
Procedure: Using a standard Radioimmunoassay (RIA) for ACTH (Immuno Nuclear Corporation, CAT. #2400), the ability of antibodies to a peptide (HTCA) complementary to ACTH to bind with antibodies to ACTH was determined. In a Standard RIA for ACTH, unlabelled ACTH is added in known amounts to a solution of radiolabelled ACTH and antibody to ACTH to compete away the binding of radiolabelled ACTH to its antibody. The amount of radiolabel bound is determined by immunoprecipitating the antibody and counting the radioactivity of the precipitiate.
In the experiment, unlabelled ACTH, immunoglobulin from rabbits immunized with the complementary peptide HTCA, and immunoglobulins from normal rabbits were used to compete with radiolabelled ACTH in the RIA. Immunoglobulin (35 mg/ml) solutions were prepared in phosphate buffered saline, and ACTH and ^125 I-ACTH were prepared as specified in the RIA kit.

ACTH (1-24) = molecular target: T1, ACTH (1-24) (Homo sapiens, UniProt P01189); test: ELISA binding of ACTH to HTCA-coated microtiter wells
T1 construct: 10 ug synthetic ACTH (1-24) in PBS-Tween buffer; purchased Organon (West Orange, N.J.); host or cells: chemical synthesis
Procedure: From 1 to 25 micrograms (ug) per well of HTCA or insulin in carbonate-bicarbonate coating buffer were added to 96 well round bottom microtiter plates and incubated at 4° C. for 8 hr. The plates were then washed with phosphate buffered saline (PBS)-Tween 20 (Sigma Chemical Co., St. Louis, Mo.) buffer.
To the insulin-coated wells and to some of the HTCA-coated wells was added 10 ug synthetic ACTH (1-24) in PBS-Tween buffer. Control wells (HTCA alone) contained only PBS-Tween. The plates were incubated at room temperature for 2 hr. and then washed three times with PBS-Tween buffer. Rabbit antisera directed against the amide of synthetic ACTH 1-13 (Accurate Biochemicals, Westbury N.Y.) was added to each well and the plates were incubated for 1 hr at room temperature. Following 3 washes with PBS-Tween buffer, alkaline phosphatase-conjugated goat anti-rabbit Ig G (Miles Laboratories, Elkharbt, Ind.) in PBS-Tween buffer (1:300 dilution) was added. After inculation at room temperature for 1 hr, the plates were washed three times with PBS-Tween buffer and each well was treated with 200 microliters (ul) of p-nitrophenyl phosphate (1 mg/ml in carbonate-bicarbonate buffer) for 11/2 hr. at room temperature. The enzymatic reaction was then stopped by the addition of 3N NaOH (50 ul) to each well and the optical absorbance of p-nitrophenol the alkaline phosphatase product, was measured at 405 nm. The ACTH bound to the coated microtiter wells was measured by this enzyme-linked immunoabsorbent assay (ELISA).
A microtiter plate was prepared and treated generally as described above but was coated with 3.7 nmol/well HTCA. To each coated well was added a solution of 3.7 nmol ACTH combined with the amounts of HTCA designated on the abscissa in FIG. 4.

[3] = molecular target: T2, opiate receptors on NG108-15 cells (Mus musculus, UniProt P32300); test: Binding of ^125 I-beta-endorphin to NG108-15 cells; conditions: read-out: % Inhibition of Specific ^125 I-beta-endorphin
T2 construct: opiate receptors on NG108-15 cells; endogenous in cells; host or cells: NG108-15 cells
T2 sequence (P32300 whole entry): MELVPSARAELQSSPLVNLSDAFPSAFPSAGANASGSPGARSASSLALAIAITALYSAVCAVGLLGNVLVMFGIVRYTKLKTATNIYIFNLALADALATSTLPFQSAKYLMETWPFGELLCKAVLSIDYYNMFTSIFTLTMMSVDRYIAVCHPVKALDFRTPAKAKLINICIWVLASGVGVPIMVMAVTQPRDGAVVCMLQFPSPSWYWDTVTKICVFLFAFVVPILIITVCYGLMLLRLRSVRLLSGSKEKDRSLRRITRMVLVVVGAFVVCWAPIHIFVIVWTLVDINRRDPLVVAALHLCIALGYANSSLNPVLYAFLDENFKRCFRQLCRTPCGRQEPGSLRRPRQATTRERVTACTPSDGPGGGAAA
Procedure: Seventy percent of the total binding was specific by conventional criteria.
For this experiment, ^125 I-beta-endorphin was preincubated 30 minutes with various amounts of the complementary peptide, gamma-ODNE, before a 30 minute (37° C.) incubation with NG108-15 cells in microtiter wells. After the incubation, cells were washed 3 times and cell associated radioactivity wad determined with a Packard Multi-Prias gamma counter.

bovine gamma-endorphin = molecular target: T3, bovine gamma-endorphin (Bos taurus, UniProt P01190); test: ELISA binding of gamma-endorphin to coated wells; conditions: gamma-odne 40 ug/well; compared with insulin or BSA coating
T3 construct: purchased Boehringer Mannheim (Indianapolis, IN); host or cells: chemical synthesis
Procedure: The wells of a 96-well round-bottomed microtiter plate were coated (by the procedure described in Example 1B) with gamma-odne (40 ug/well), insulin (20U/well) or bovine serum albumin (BSA, 200 ug/well). Varying concentrations of gamma-endorphin (as shown on the abscissa in FIG. 7) were incubated in the coated wells for 1 hr, after which the plates were thrice washed with PBS-Tween buffer. The wells were then treated with rabbit antibody for gamma-endorphin, washed, and then treated with goat antibody against rabbit immunoglobulin the goat antibody being conjugated to alkaline phosphatase. After washing away unbound goat antibody conjugate, the bound alkaline phosphatase activity was measured with p-nitrophenylphosphate as earlier described. The results of the above manipulations are shown in FIG. 7 where the extent of absorbance at 405 nm reflects the degree of gamma-endorphin binding to wells coated with gamma-odne, insulin or BSA. […] The shaded area in FIG. 7 represents the extent of gamma-endorphin binding in the presence of soluble excess of gamma-odne. Thus it is shown that a second pair of complementary peptides interacts in a manner showing affinity and apparent congruence.

^125 I-ACTH = molecular target: T4, ^125 I-ACTH (Homo sapiens, UniProt P01189); test: Solid-phase binding of ^125 I-ACTH to 5'-3' and 3'-5' complementary peptides; conditions: wells coated 2 mg/ml
T4 construct: ACTH plates+immunized rabbit immunoglobulin
T4 sequence (P01189 138-176 limits assumed): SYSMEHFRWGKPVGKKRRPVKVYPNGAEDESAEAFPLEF
Procedure: A solid-phase binding assay was used to determine the ability of both the 5'-to-3' and the 3'-to-5'-complementary-RNA-strand peptides (see Examples 1A and 1C) to bind ^125 I-ACTH. The peptides were diluted in phosphate-buffered saline (140 mM-NaCl/3 mM-KCl/0.1% NaN3 /20 mM-phosphate buffer, pH 7.4) to 2 mg/ml, and 0.2 ml/well was placed into poly(vinyl chloride) micro-titre plates (Becton and Dickinson, Oxnard, CA, U.S.A.). After 18 h at 4° C., unbound peptide was removed by washing three times with phosphate-buffered saline containing 0.1% bovine serum albumin (Sigma Chemical Co., St. Louis, MO, U.S.A.). ^125 I-ACTH was diluted to various concentrations with phosphate-buffered saline containing 0.1% bovine serum albumin and incubated in peptide-coated wells for 60 minutes at 4° C. […] After incubation, unbound radiolabel was washed out with phosphate-buffered saline containing 0.1% bovine serum albumin, and the radioactivity of individual wells was measured by gamma-radiation counting. The amount of specifically bound radioactivity was determined by blocking ^125 I-ACTH binding with unlabelled ACTH. Additional controls included coating wells with insulin or bovine serum albumin (2 mg/ml) before the addition of the ^125 I-ACTH.

Molecule: C=CCN1CC[C@]23c4c5ccc(O)c4O[C@H]2C(=O)CC[C@@]3(O)[C@H]1C5 [naloxone]
- reversal of serum-induced catatonia (in words) (female ICR mice): reversed

Molecule: ACTH: Synthetic ACTH, fragment 1-24, obtained from Organon; unlabelled ACTH of RIA kit in later examples
- effect on binding to Y-1 cells, absorbancy at 405 nM (in words) [1]: blocked binding of the anti-HTCA in a dose dependent manner
- % Inhibition of Specific Binding (HTCA; 50 pg/ml ACTH in FCS, Log10 Dilution 0): 91%
- Log10 Dilution at which 50% inhibition occurred (HTCA; 50 pg/ml serum sample): -1.1
- % Inhibition of Specific Binding (HTCA; 50 pg/ml, Log10 Dilution -0.5): 73%
- % Inhibition of Specific Binding (HTCA; 50 pg/ml, Log10 Dilution -1.0): 40%
- % Inhibition of Specific Binding (HTCA; 50 pg/ml, Log10 Dilution -1.5): 44%
- % Inhibition of Specific Binding (HTCA; 50 pg/ml, Log10 Dilution -2.0): 9%
- % Inhibition of Specific Binding (HTCA; 50 pg/ml, Log10 Dilution -2.5): 1%
- % Inhibition of Specific Binding (HTCA; 50 pg/ml, Log10 Dilution -3.0): 0%
- % Inhibition of Specific Binding (HTCA; 50 pg/ml, Log10 Dilution -3.5): 0%
- % Inhibition of Specific Binding (HTCA; 500 pg/ml ACTH in FCS, Log10 Dilution 0): 85%
- Log10 Dilution at which 50% inhibition occurred (HTCA; 500 pg/ml serum sample): -2.0
- % Inhibition of Specific Binding (HTCA; 500 pg/ml, Log10 Dilution -0.5): 90%
- % Inhibition of Specific Binding (HTCA; 500 pg/ml, Log10 Dilution -1.0): 77%
- % Inhibition of Specific Binding (HTCA; 500 pg/ml, Log10 Dilution -1.5): 57%
- % Inhibition of Specific Binding (HTCA; 500 pg/ml, Log10 Dilution -2.0): 53%
- % Inhibition of Specific Binding (HTCA; 500 pg/ml, Log10 Dilution -2.5): 35%
- % Inhibition of Specific Binding (HTCA; 500 pg/ml, Log10 Dilution -3.0): 32%
- % Inhibition of Specific Binding (HTCA; 500 pg/ml, Log10 Dilution -3.5): 20%
- Corticosterone equivalents ([2]; Experiment 1): 1.08 µg/mL
- Corticosterone equivalents ([2]; Experiment 2): 1.42 µg/mL
- Percent Specific Binding (antibody to ACTH; competitor 20 pg/ml): 90%
- Percent Specific Binding (antibody to ACTH; competitor 50 pg/ml): 77.5%
- Percent Specific Binding (antibody to ACTH; competitor 100 pg/ml): 62.2%
- Percent Specific Binding (antibody to ACTH; competitor 200 pg/ml): 42%
- Percent Specific Binding (antibody to ACTH; competitor 500 pg/ml): 21.6%

Molecule: GVHLHRAPLLAHRLAPAEVFHGVR [HTCA]
- ACTH-HTCA binding that was specific (ACTH (1-24); 3.7 nmol/well HTCA coating, competition with soluble HTCA): about 90%
- Kd (ACTH (1-24); wells coated with 3.7 nmol/well HTCA, 3.7 nmol ACTH, read-out: Kd (Scatchard analysis) of ACTH-HTCA binding): 1.9 µM

Molecule: QRDKGRLALLGGHEPAV [gamma-odne, H2 N--gln--arg--asp--lys--gly--arg--leu--ala--leu--leu--gly--gly--his--glu--pro--ala--val--COOH]
- inhibition at 100 µM ([3]; 10^-4 M): 75 ± 0.6%
- inhibition at 10 µM ([3]; 10^-5 M): 36 ± 2.1%
- inhibition at 1 µM ([3]; 10^-6 M, 30 min preincubation with 10^-11 M label): 24.7 ± 3.9%
- gamma-endorphin binding to coated wells, absorbance at 405 nM (in words) (bovine gamma-endorphin): significantly bound

Molecule: insulin: control coating protein [reference compound]
- binding of ACTH (1-24) to coated microtiter wells (in words) (ACTH (1-24); 10 ug ACTH, ELISA): not by insulin coated microtiter wells
- binding on control plates relative to binding to complementary peptide plates (^125 I-ACTH): less than 5%
